Values quoted from earlier work as cited in US20080152704A1, “Dosage Forms of Palonosetron Hydrochloride Having Improved Stability and Bioavailability” (priority 2006, published 2008).

Key:
5-HT3 receptor = biological target: T1, 5-HT3 receptor (Homo sapiens, UniProt P46098)
T1 sequence (P46098 24-478): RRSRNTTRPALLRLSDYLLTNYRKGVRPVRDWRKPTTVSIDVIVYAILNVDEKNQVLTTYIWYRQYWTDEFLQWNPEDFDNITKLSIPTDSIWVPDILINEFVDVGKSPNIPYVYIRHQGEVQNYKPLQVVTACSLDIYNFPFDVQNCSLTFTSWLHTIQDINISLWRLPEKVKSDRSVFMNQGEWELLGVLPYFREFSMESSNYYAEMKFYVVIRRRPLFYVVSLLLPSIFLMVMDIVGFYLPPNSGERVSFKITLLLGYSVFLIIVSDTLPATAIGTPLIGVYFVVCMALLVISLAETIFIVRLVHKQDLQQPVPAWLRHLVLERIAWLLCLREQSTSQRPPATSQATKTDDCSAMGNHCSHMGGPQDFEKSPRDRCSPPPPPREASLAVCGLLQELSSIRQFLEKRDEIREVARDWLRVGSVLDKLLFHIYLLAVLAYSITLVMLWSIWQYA

Cl.O=C1c2cccc3c2[C@H](CCC3)CN1[C@@H]1CN2CCC1CC2 [Palonosetron, (3aS)-2-[(S)-1-Azabicyclo [2.2.2]oct-3-yl]-2,3,3a,4,5,6-hexahydro-1-oxo-1Hbenz[de] isoquinoline hydrochloride]
affinity as an antagonist for the 5-HT3 receptor (5-HT3 receptor): high affinity | affinity for other receptors such as dopamine receptors (dopamine receptors): low affinity
